What was measured:
iliac artery = experiment: Small vessel myograph, iliac artery rings four weeks after stenting; type: in vivo, rat; conditions: FIG. 3
Description: (§1) Specific pathogen-free, male Wistar rats (Harlan, Horst, Netherlands) were fed standard rat chow and water ad libitum. For Ang-(1-7) administration by minipump, 28 rats were used. The animals were anaesthetised with O2, N2O and isoflurane (Abbot B.V., Hoofddorp, Netherlands). In 20 animals, bare metal stents (Medtronic Driver® 2.5×8 mm stents) were placed in the abdominal aorta. Upon stent placement, osmotic minipumps (Model 2004, Alzet, Charles River, Maastricht, The Netherlands) were implanted subcutaneously for drug delivery via a catheter in the jugular vein. The pumps infused either Ang-(1-7) (Bachem, Well am Rhein, Germany) (24 μg/kg/h) (n=10) or saline (0.25 μl/h) (n=10). Furthermore, a control group underwent sham surgery (n=8: surgery identical to stent groups, but without balloon insertion and stenting), and received an osmotic minipump releasing saline. Treatment continued for four weeks. […]
(§2) Iliac and brachial arteries were prepared under a dissection microscope in Krebs solution that was kept at 4° C. […] After this, vessels were brought to tension in 20 μm steps until reaching a diameter corresponding to 100 mmHg transmural pressure (L100, calculated by exponential curve fitting with Excel software). […] All responses were recorded in grams tension. The responses to MeCh were expressed as the percent decrease in PE EC70 responses.

brachial artery = experiment: Small vessel myograph, brachial artery rings four weeks after stenting; type: in vivo, rat; conditions: minipump infusion
Description: as §1, §2

[1] = test system: isolated thoracic aorta rings; experiment: Organ bath, isolated thoracic aortic rings four weeks after stenting; type: in vivo, rat; conditions: minipump infusion, FIG. 5
Description: (§3) Specific pathogen-free, male Wistar rats (Harlan, Horst, Netherlands) were fed standard rat chow and water ad libitum. For Ang-(1-7) administration by minipump, 28 rats were used. The animals were anaesthetised with O2, N2O and isoflurane (Abbot B.V., Hoofddorp, Netherlands). In 20 animals, bare metal stents (Medtronic Driver® 2.5×8 mm stents) were placed in the abdominal aorta. Upon stent placement, osmotic minipumps (Model 2004, Alzet, Charles River, Maastricht, The Netherlands) were implanted subcutaneously for drug delivery via a catheter in the jugular vein. The pumps infused either Ang-(1-7) (Bachem, Well am Rhein, Germany) (24 μg/kg/h) (n=10) or saline (0.25 μl/h) (n=10). Furthermore, a control group underwent sham surgery (n=8: surgery identical to stent groups, but without balloon insertion and stenting), and received an osmotic minipump releasing saline. Treatment continued for four weeks. Five rats were excluded because of technical failure (aortic leakage or minipump failure) resulting in n=7 for Ang-(1-7) infusion, n=10 for saline infusion, and n-6 for sham-operated rats.
To test the effect of Ang-(1-7)-eluting stents (see Example 1 for details), 36 rats underwent placement of three types of stents into the abdominal aorta, bare metal stents, stents coated with polymer alone, or stents coated with polymer containing approximately 90 μg Ang-(1-7). Six rats were excluded because of technical failure during surgery, and three stents could not be processed due to incomplete polymerisation of embedding plastic (see below) leaving n=9 for bare metal stent, n=10 for stent with polymer only and n=8 for stent with polymer+Ang-(1-7).
Twenty-eight days after stent implantation, the animals were anaesthetised with O2, N2O and isoflurane, and systemically heparinized with 500 IE intravenously (Leo Pharma B.V., Breda, The Netherlands). The stented abdominal aortas were harvested, fixed, embedded in methylmethacrylate, sectioned and stained for histological analysis as described previously. […]
The stented aortas were evaluated in organ bath studies with isolated vascular rings. […] The endothelium-dependent vasodilation was assessed by a cumulative dose of metacholine (MeCh; 10 nM to 0.1 mM). […] The NO-dependent vasodilation to metacholine was calculated, by subtraction of the vasodilation in the presence of L-NMMA from the total vasodilation. The PG-dependent vasodilation in response to MeCh was calculated by subtraction of the vasodilation in the presence of L-NMMA and indomethacin from the vasodilation in the presence of L-NMMA. The EDHF-dependent vasodilation was determined by the vasodilation to metacholine in the presence of L-NMMA and indomethacin. […]

[2] = test system: neointima formation in the rat abdominal aorta; experiment: Neointima area in stented rat abdominal aorta (histology); type: in vivo
Description: as §3, with “rats. […]” for “rats.”
To determine if Ang-(1-7) infusion by minipump or elution from the stent reduced neointima formation, neointima area was measured in animals which received Ang-(1-7) either by stent or minipump (Table 1).

[3] = test system: rat bone marrow mononuclear cells (MNC) and endothelial progenitor cells (EPC); experiment: Cultured rat bone marrow mononuclear cells (MNC) and endothelial progenitor cells (EPC); type: cell-based; conditions: 10^−7 mol/L, 7 days of culture
Method: Five rats were sacrificed by exsanguination under O2, N2O and isoflurane anaesthesia. Bone marrow was isolated from the left and right femurs by flushing the bone marrow cavity with sterile phosphate-buffered saline at room temperature (PBS, Gibco, Invitrogen, Breda, The Netherlands). From each individual rat, MNC were obtained by density gradient centrifugation at 2000 rpm (MSE Mistral 3000i, UK) for 20 minutes at room temperature according to manufacturer's instruction (Cedarlane Laboratories ltd., Hornby, Canada). Cells from individual rats were then resuspended in endothelial cell basal medium-2 (EGM; Cambrex Bioproducts, Clonetics, New Jersey, USA) containing supplemented 2% fetal bovine serum and EGM-2 SingleQuots (Clonetics). At day 1, 5×10^5 cells/well were seeded in 1% gelatin (225 bloom, Sigma-Aldrich, Zwijndrecht, The Netherlands) precoated 96-well culture plates (Costar, Corning, N.Y., USA) at 37° C. in a humidified incubator in the presence of 5% CO2. At day 3 of culture, medium with non-attached cells was removed, and replaced by fresh culture medium containing Ang-(1-7) at 10^−7 mol/L with or without antagonists (treatment medium). Next, cells were grown for 7 days, changing treatment medium at day 5 and day 7. At day 9, treatment medium was removed and culture medium supplemented with 10 μg/mL acetylated low-density lipoprotein (Dil-Ac-LDL) was added to the cells for 4 h. […]
Detection of staining was performed with the use of fluorescence microscopy (Leica, Wetzlar, Germany) at a magnification of 200×. […] Cells were quantified with the use of ImagePro software (Media Cybernetics, Silver Spring, USA). In the occasion that the presence of cell clusters hindered proper digital quantification, cell numbers were assessed by hand. […]
To this purpose MNC were isolated from rat bone marrow and cultured for 2 days to allow attachment. […] To determine if Ang-(1-7) preferentially stimulated EPC, the number of EPC was expressed as a percentage of the total population of MNC (FIG. 6B). […]

Q: What does the source list for “angiotensin-(1-7) (DRVYIHP; listed as Homo sapiens) [Ang-(1-7)]”?
A: vasodilation upon stimulation with metacholine (iliac artery; chronic infusion by minipump, iliac artery (downstream)): increased; vasoconstrictions (phenylephrine) (iliac artery; minipump infusion, iliac artery): remained equal; vasodilator function (brachial artery; brachial artery (remote), FIG. 4): improved; vasoconstrictor responses to phenylephrine (brachial artery; brachial artery, to the level of sham-operated rats): decreased; EDHF contribution to metacholine vasodilation ([1]; thoracic aorta): stimulated; NO release (contribution to metacholine vasodilation) ([1]; thoracic aorta): did not alter; PG contribution to metacholine vasodilation ([1]; thoracic aorta): stimulated; Emax of total response on metacholine ([1]; stented group showed 40% decrease): full recovery; neointimal formation (in words) ([2]; infusion using a minipump): reduction; Neointima area NIA ([2]; minipump infusion 24 μg/kg/h for four weeks, bare metal stent in rat abdominal aorta, p < 0.05 vs. saline): 0.51 ± 0.05 mm²; number of EPC ([3]; FIG. 6A): increased; number of MNC ([3]; FIG. 6A): increased; relative number of EPC (percentage of total MNC) ([3]; FIG. 6B): increased
